Reference: patent US20180370927A1, “MICROBIOCIDAL OXADIAZOLE DERIVATIVES” (SYNGENTA PARTICIPATIONS AG, priority 2015, published 2018)

Assays:
[1] = system: Puccinia recondita f. Sp. Tritici; assay: Puccinia recondita f. sp. tritici / wheat / leaf disc preventative (brown rust); format: in vivo; conditions: foliar, 200 ppm in the applied formulation, wheat leaf segments, preventative, assessed 7 to 9 days after application, read-out: disease control compared to untreated control leaf disks
Experimental: (§1) Leaf disks or leaf segments of various plant species are cut from plants grown in a greenhouse. The cut leaf disks or segments are placed in multiwell plates (24-well format) onto water agar. The leaf disks are sprayed with a test solution before (preventative) or after (curative) inoculation. Compounds to be tested are prepared as DMSO solutions (max. 10 mg/mL) which are diluted to the appropriate concentration with 0.025% Tween20 just before spraying. The inoculated leaf disks or segments are incubated under defined conditions (temperature, relative humidity, light, etc.) according to the respective test system. A single evaluation of disease level is carried out 3 to 14 days after inoculation, depending on the pathosystem. Percent disease control relative to the untreated check leaf disks or segments is then calculated.
Example 1: Fungicidal Activity Against Puccinia recondita f. Sp. Tritici/Wheat/Leaf Disc Preventative (Brown Rust)
Wheat leaf segments cv. Kanzler were placed on agar in multiwell plates (24-well format) and sprayed with the formulated test compound diluted in water. The leaf disks were inoculated with a spore suspension of the fungus 1 day after application. The inoculated leaf segments were incubated at 19° C. and 75% relative humidity (rh) under a light regime of 12 hours light/12 hours darkness in a climate cabinet and the activity of a compound was assessed as percent disease control compared to untreated when an appropriate level of disease damage appears in untreated check leaf segments (7 to 9 days after application).
(§2) The following compounds at 200 ppm in the applied formulation give at least 80% disease control in this test when compared to untreated control leaf disks under the same conditions, which show extensive disease development.

[2] = system: Puccinia recondita f. Sp. Tritici; assay: Puccinia recondita f. sp. tritici / wheat / leaf disc curative (brown rust); format: in vivo; conditions: foliar, 200 ppm in the applied formulation, wheat leaf segments, curative (applied 1 day after inoculation), assessed 6 to 8 days after application, read-out: disease control compared to untreated control leaf disks
Experimental: as §1
Example 2: Fungicidal Activity Against Puccinia recondita f. Sp. Tritici/Wheat/Leaf Disc Curative (Brown Rust)
Wheat leaf segments cv. Kanzler are placed on agar in multiwell plates (24-well format). The leaf segments are then inoculated with a spore suspension of the fungus. Plates were stored in darkness at 19° C. and 75% relative humidity. The formulated test compound diluted in water was applied 1 day after inoculation. The leaf segments were incubated at 19° C. and 75% relative humidity under a light regime of 12 hours light/12 hours darkness in a climate cabinet and the activity of a compound was assessed as percent disease control compared to untreated when an appropriate level of disease damage appears in untreated check leaf segments (6 to 8 days after application).
as §2

[3] = system: Glomerella lacenarium (Colletotrichum lacenarium); assay: Glomerella lacenarium (Colletotrichum lacenarium) liquid culture / cucumber / preventative (anthracnose); format: cell-based; conditions: 20 ppm in the applied formulation, liquid culture in PDB, 24° C., 3 to 4 days after application, read-out: disease control (inhibition of growth, photometric) compared to untreated control
Experimental: Mycelia fragments or conidia suspensions of a fungus prepared either freshly from liquid cultures of the fungus or from cryogenic storage, are directly mixed into nutrient broth. DMSO solutions of the test compound (max. 10 mg/ml) are diluted with 0.025% Tween20 by a factor of 50 and 10 μL of this solution is pipetted into a microtiter plate (96-well format). The nutrient broth containing the fungal spores/mycelia fragments is then added to give an end concentration of the tested compound. The test plates are incubated in the dark at 24° C. and 96% relative humidity. The inhibition of fungal growth is determined photometrically after 2 to 7 days, depending on the pathosystem, and percent antifungal activity relative to the untreated check is calculated.
Example 4: Fungicidal Activity Against Glomerella lacenarium (Colletotrichum lacenarium) Liquid Culture/Cucumber/Preventative (Anthracnose)
Conidia of the fungus from cryogenic storage are directly mixed into nutrient broth (PDB—potato dextrose broth). After placing a (DMSO) solution of test compound into a microtiter plate (96-well format), the nutrient broth containing the fungal spores is added. The test plates are incubated at 24° C. and the inhibition of growth is measured photometrically 3 to 4 days after application.
The following compounds at 20 ppm in the applied formulation give at least 80% disease control in this test when compared to untreated control under the same conditions, which show extensive disease development.

NC(=O)C(=O)N(Cc1ccc(-c2noc(C(F)(F)F)n2)cc1)CC1CCCO1 (stereo not drawn) [Compound 4.14, N′-(tetrahydrofuran-2-ylmethyl)-N′-[[4-[5-(trifluoromethyl)-1,2,4-oxadiazol-3-yl]phenyl]methyl] oxamide]
≥ 80%: pest or weed control at 200 ppm [1] | pest or weed control at 200 ppm [2] | inhibition at 20 ppm [3]

COC(CN(C)C(=O)C(=O)Nc1ccc(-c2noc(C(F)(F)F)n2)cc1)OC [Compound 4.21, N′-(2,2-dimethoxyethyl)-N'-methyl-N-[4-[5-(trifluoromethyl)-1,2,4-oxadiazol-3-yl]phenyl] oxamide]
≥ 80%: pest or weed control at 200 ppm [1] | pest or weed control at 200 ppm [2] | inhibition at 20 ppm [3]

CN(C)C(=O)C(=O)N(Cc1ccc(-c2noc(C(F)(F)F)n2)cc1)Cc1ccco1 [Compound 4.23, N′-(2-furylmethyl)-N,N-dimethyl-N′-[[4-[5-(trifluoromethyl)-1,2,4-oxadiazol-3-yl]phenyl]methyl] oxamide]
≥ 80%: pest or weed control at 200 ppm [1] | pest or weed control at 200 ppm [2] | inhibition at 20 ppm [3]

CCCONC(=O)C(=O)NCc1ccc(-c2noc(C(F)(F)F)n2)cc1 [Compound 4.42, N′-propoxy-N-[[4-[5-(trifluoromethyl)-1,2,4-oxadiazol-3-yl]phenyl]methyl] oxamide]
≥ 80%: pest or weed control at 200 ppm [1] | pest or weed control at 200 ppm [2] | inhibition at 20 ppm [3]

CC(C)NC(=O)C(=O)NCc1ccc(-c2noc(C(F)(F)F)n2)cc1 [Compound 4.46, N′-isopropyl-N-[[4-[5-(trifluoromethyl)-1,2,4-oxadiazol-3-yl]phenyl]methyl] oxamide]
≥ 80%: pest or weed control at 200 ppm [1] | pest or weed control at 200 ppm [2] | inhibition at 20 ppm [3]

CON(C)C(=O)C(=O)NCc1ccc(-c2noc(C(F)(F)F)n2)cc1 [Compound 4.48, N′-methoxy-N′-methyl-N-[[4-[5-(trifluoromethyl)-1,2,4-oxadiazol-3-yl]phenyl]methyl] oxamide]
≥ 80%: pest or weed control at 200 ppm [1] | pest or weed control at 200 ppm [2] | inhibition at 20 ppm [3]

CCC(C)NC(=O)C(=O)N(Cc1ccc(-c2noc(C(F)(F)F)n2)cc1)OC (stereo not drawn) [Compound 4.61, N′-methoxy-N-sec-butyl-N′-[[4-[5-(trifluoromethyl)-1,2,4-oxadiazol-3-yl]phenyl]methyl] oxamide]
≥ 80%: pest or weed control at 200 ppm [1] | pest or weed control at 200 ppm [2] | inhibition at 20 ppm [3]

CON(Cc1ccc(-c2noc(C(F)(F)F)n2)cc1)C(=O)C(=O)NCC(C)(C)C [Compound 4.62, N-(2,2-dimethylpropyl)-N′-methoxy-N′-[[4-[5-(trifluoromethyl)-1,2,4-oxadiazol-3-yl]phenyl]methyl] oxamide]
≥ 80%: pest or weed control at 200 ppm [1] | pest or weed control at 200 ppm [2] | inhibition at 20 ppm [3]

CON(Cc1ccc(-c2noc(C(F)(F)F)n2)cc1)C(=O)C(=O)NC(C)C [Compound 4.64, N-isopropyl-N′-methoxy-N′-[[4-[5-(trifluoromethyl)-1,2,4-oxadiazol-3-yl]phenyl]methyl] oxamide]
≥ 80%: pest or weed control at 200 ppm [1] | pest or weed control at 200 ppm [2] | inhibition at 20 ppm [3]

CCNC(=O)C(=O)N(Cc1ccc(-c2noc(C(F)(F)F)n2)cc1)OC [Compound 4.66, N-ethyl-N′-methoxy-N′-[[4-[5-(trifluoromethyl)-1,2,4-oxadiazol-3-yl]phenyl]methyl] oxamide]
≥ 80%: pest or weed control at 200 ppm [1] | pest or weed control at 200 ppm [2] | inhibition at 20 ppm [3]

CON(Cc1ccc(-c2noc(C(F)(F)F)n2)cc1)C(=O)C(=O)NCC(C)C [Compound 4.67, N-isobutyl-N′-methoxy-N′-[[4-[5-(trifluoromethyl)-1,2,4-oxadiazol-3-yl]phenyl]methyl] oxamide]
≥ 80%: pest or weed control at 200 ppm [1] | pest or weed control at 200 ppm [2] | inhibition at 20 ppm [3]

CON(Cc1ccc(-c2noc(C(F)(F)F)n2)cc1)C(=O)C(=O)NC1CC1 [Compound 4.68, N-cyclopropyl-N′-methoxy-N′-[[4-[5-(trifluoromethyl)-1,2,4-oxadiazol-3-yl]phenyl]methyl] oxamide]
≥ 80%: pest or weed control at 200 ppm [1] | pest or weed control at 200 ppm [2] | inhibition at 20 ppm [3]

CON(Cc1ccc(-c2noc(C(F)(F)F)n2)cc1)C(=O)C(=O)NC1CCC1 [Compound 4.72, N-cyclobutyl-N′-methoxy-N′-[[4-[5-(trifluoromethyl)-1,2,4-oxadiazol-3-yl]phenyl]methyl] oxamide]
≥ 80%: pest or weed control at 200 ppm [1] | pest or weed control at 200 ppm [2] | inhibition at 20 ppm [3]

CCONC(=O)C(=O)N(Cc1ccc(-c2noc(C(F)(F)F)n2)cc1)OC [Compound 4.74, N-ethoxy-N′-methoxy-N′-[[4-[5-(trifluoromethyl)-1,2,4-oxadiazol-3-yl]phenyl]methyl] oxamide]
≥ 80%: pest or weed control at 200 ppm [1] | pest or weed control at 200 ppm [2] | inhibition at 20 ppm [3]

CON(Cc1ccc(-c2noc(C(F)(F)F)n2)cc1)C(=O)C(=O)NC(C)(C)C [Compound 4.75, N-tert-butyl-N′-methoxy-N′-[[4-[5-(trifluoromethyl)-1,2,4-oxadiazol-3-yl]phenyl]methyl] oxamide]
≥ 80%: pest or weed control at 200 ppm [1] | pest or weed control at 200 ppm [2] | inhibition at 20 ppm [3]

CCCNC(=O)C(=O)N(Cc1ccc(-c2noc(C(F)(F)F)n2)cc1)OC [Compound 4.77, N′-methoxy-N-propyl-N′-[[4-[5-(trifluoromethyl)-1,2,4-oxadiazol-3-yl]phenyl]methyl] oxamide]
≥ 80%: pest or weed control at 200 ppm [1] | pest or weed control at 200 ppm [2] | inhibition at 20 ppm [3]

CONC(=O)C(=O)N(Cc1ccc(-c2noc(C(F)(F)F)n2)cc1)OC [Compound 4.78, N,N′-dimethoxy-N′-[[4-[5-(trifluoromethyl)-1,2,4-oxadiazol-3-yl]phenyl]methyl] oxamide]
≥ 80%: pest or weed control at 200 ppm [1] | pest or weed control at 200 ppm [2] | inhibition at 20 ppm [3]

CON(Cc1ccc(-c2noc(C(F)(F)F)n2)cc1)C(=O)C(=O)N1CCOCC1 [Compound 4.80, N-methoxy-2-morpholino-2-oxo-N-[[4-[5-(trifluoromethyl)-1,2,4-oxadiazol-3-yl]phenyl]methyl] acetamide]
≥ 80%: pest or weed control at 200 ppm [1] | pest or weed control at 200 ppm [2] | inhibition at 20 ppm [3]

CNC(=O)C(=O)N(C)Cc1ccc(-c2noc(C(F)(F)F)n2)cc1 [Compound 4.99, N,N′-dimethyl-N′-[[4-[5-(trifluoromethyl)-1,2,4-oxadiazol-3-yl]phenyl]methyl] oxamide]
≥ 80%: pest or weed control at 200 ppm [1] | pest or weed control at 200 ppm [2] | inhibition at 20 ppm [3]

CNC(=O)C(=O)N(Cc1ccc(-c2noc(C(F)(F)F)n2)cc1)C1CC1 [Compound 4.100, N′-cyclopropyl-N-methyl-N′-[[4-[5-(trifluoromethyl)-1,2,4-oxadiazol-3-yl]phenyl]methyl] oxamide]
≥ 80%: pest or weed control at 200 ppm [1] | pest or weed control at 200 ppm [2] | inhibition at 20 ppm [3]

CONC(=O)C(=O)N(C)Cc1ccc(-c2noc(C(F)(F)F)n2)cc1 [Compound 4.102, N-methoxy-N′-methyl-N′-[[4-[5-(trifluoromethyl)-1,2,4-oxadiazol-3-yl]phenyl]methyl] oxamide]
≥ 80%: pest or weed control at 200 ppm [1] | pest or weed control at 200 ppm [2] | inhibition at 20 ppm [3]
